One compound from patent US7855292B2, “Sulfonamide compounds” (Janssen Pharmaceutica NV, priority 2004, dated 2010) can be followed below.

One assay has as its target T1, CCK-1 receptor (Homo sapiens, UniProt P32238).
T1 construct: expressed in transfected cells; host or cells: CHO-K1
T1 sequence (P32238 1-428): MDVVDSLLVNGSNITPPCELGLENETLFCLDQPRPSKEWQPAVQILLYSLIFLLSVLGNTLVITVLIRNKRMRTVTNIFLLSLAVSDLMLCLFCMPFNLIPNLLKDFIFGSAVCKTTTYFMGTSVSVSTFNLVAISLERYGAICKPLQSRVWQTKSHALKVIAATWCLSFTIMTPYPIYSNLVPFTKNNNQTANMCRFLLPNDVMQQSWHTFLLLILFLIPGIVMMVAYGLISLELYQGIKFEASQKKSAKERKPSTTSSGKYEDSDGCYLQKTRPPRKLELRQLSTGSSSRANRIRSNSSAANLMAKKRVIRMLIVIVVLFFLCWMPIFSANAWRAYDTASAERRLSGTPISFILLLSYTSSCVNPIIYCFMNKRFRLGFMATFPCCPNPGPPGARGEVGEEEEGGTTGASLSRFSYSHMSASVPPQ
The assay can be described thus: CCK1 binding assay ([125I]-BH-CCK-8S displacement, CHO-K1 membranes). As to conditions: membranes of CHO-K1 cells stably transfected with the CCK-1 receptor; 20 pM [125I]-BH-CCK-8S; 0.3 μM PD-134,308 present; 60 min at 21±3° C. The method in brief: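 Membranes from CHO-K1 cells stably expressing CCK-1 incubated 1 h at 21±3° C with 20 pM [125I]-BH-CCK-8S in HEPES buffer pH 7.2 containing 0.3 μM PD-134,308 to block CCK-2. Bound radioactivity read by gamma counting after filtration. pKi derived via Cheng-Prusoff, with specific binding defined using 2-NAP.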

A further assay concerns the target T2, CCK2 receptor (Cavia porcellus, UniProt H0VZC5).
T2 construct: strips of muscle were dissected and suspended in isolated tissue organ baths; from tissue; host or cells: guinea-pig gastric corpeal muscle strips
T2 sequence (H0VZC5 1-426): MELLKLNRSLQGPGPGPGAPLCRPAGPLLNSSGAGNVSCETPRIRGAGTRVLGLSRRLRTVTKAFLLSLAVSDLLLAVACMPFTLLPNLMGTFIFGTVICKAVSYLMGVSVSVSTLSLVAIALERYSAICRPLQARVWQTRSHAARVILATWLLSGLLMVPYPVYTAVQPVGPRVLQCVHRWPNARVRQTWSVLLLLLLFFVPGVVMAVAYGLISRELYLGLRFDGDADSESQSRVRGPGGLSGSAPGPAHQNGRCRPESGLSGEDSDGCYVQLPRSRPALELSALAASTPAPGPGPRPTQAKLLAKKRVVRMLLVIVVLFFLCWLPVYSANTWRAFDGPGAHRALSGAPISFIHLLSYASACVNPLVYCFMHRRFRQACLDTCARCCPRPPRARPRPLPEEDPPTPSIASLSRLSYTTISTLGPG
Put plainly: Guinea-pig gastric corpeal muscle assay (pentagastrin-induced contraction). To be noted: isolated guinea-pig gastric corpeal muscle strips, pentagastrin concentration-response curves. Here is the method:
B. Guinea-Pig Gastric Corpeal Muscle Assay
CCK2 receptor-mediated muscle contraction was measured in an isolated muscle-strip assay of guinea-pig gastric corpeal muscle according to the methods described by Roberts et al. (S. P. Roberts, E. A. Harper, G. F. Watt, V. P. Gerskowitch, R. A. Hull, N. P. Shankley, and J. W. Black, Br. J. Pharmacol., 1996, 118(7):1779-1789). In brief, strips of muscle were dissected and suspended in isolated tissue organ baths for isotonic muscle contraction recording. The baths, containing Krebs-Henseleit solution, were maintained at 24° C. and gassed continuously with 95% O2 and 5% CO2. CCK1 receptors known to be present in this assay were blocked using a selective concentration of a suitable CCK1 receptor antagonist (e.g. 2-NAP). The effectiveness of the test compounds was assessed by measuring their effect on contractile concentration-response curves obtained using a well-characterized surrogate for the hormone gastrin (pentagastrin).

For the compound `O=C(N[C@@H](Cc1ccc(Cl)c(Cl)c1)C(=O)O)c1ccc(I)cc1NS(=O)(=O)c1cccc2nsnc12` [Example 2, (S)-2-[2-(Benzo[1,2,5]thiadiazole-4-sulfonylamino)-4-iodo-benzoylamino]-3-(3,4-dichloro-phenyl)-propionic acid], the “CCK1 pKi” value on CCK-1 receptor is 6.7. Also, at CCK2 receptor, the “behaviour in the muscle contraction assay (mode of antagonism)” value is on record as “competitive antagonist”. Further, the Kb at CCK2 receptor (CCK1 receptors blocked (e.g. 2-NAP), 24° C.) is 1.58 nM.
